Molecular target: T1, human FXR (NR1H4) (Homo sapiens, UniProt Q96RI1)
T1 construct: host or cells: CHO (Chinese hamster ovary) reporter cells
T1 sequence (Q96RI1 1-486): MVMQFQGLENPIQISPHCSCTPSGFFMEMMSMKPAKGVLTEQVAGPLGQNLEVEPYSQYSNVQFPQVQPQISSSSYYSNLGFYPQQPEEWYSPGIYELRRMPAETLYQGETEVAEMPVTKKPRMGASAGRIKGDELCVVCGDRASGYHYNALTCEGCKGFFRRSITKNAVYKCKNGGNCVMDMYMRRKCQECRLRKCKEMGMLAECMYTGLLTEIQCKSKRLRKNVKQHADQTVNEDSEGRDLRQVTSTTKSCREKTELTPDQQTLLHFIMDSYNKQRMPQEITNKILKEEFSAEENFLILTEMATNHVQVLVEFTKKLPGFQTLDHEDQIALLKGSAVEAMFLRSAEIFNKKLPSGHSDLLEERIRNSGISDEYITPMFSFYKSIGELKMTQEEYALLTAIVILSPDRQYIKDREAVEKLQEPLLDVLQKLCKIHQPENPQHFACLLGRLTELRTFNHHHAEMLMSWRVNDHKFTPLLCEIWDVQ
Experiment: Human FXR (NR1H4) Assay: Gal4 promoter driven luciferase reporter transactivation in CHO cells (Indigo Bioscience kit IB00601); on Efficacy (%): efficacy normalized to CDCA set as 100%
Assay type: cell-based
Settings: for Emax: CHO, read-out: Efficacy (%); for EC50: Human FXR (NR1H4) reporter assay, potency ranges
Description: Human FXR (NR1H4) Assay Determination of a ligand mediated Gal4 promoter driven transactivation to quantify ligand binding mediated activation of FXR. FXR Reporter Assay kit purchased from Indigo Bioscience (Catalogue number: IB00601) to determine the potency and efficacy of compound developed by Enanta that can induce FXR activation. The principle application of this reporter assay system is to quantify functional activity of human FXR. The assay utilizes non-human mammalian cells, CHO (Chinese hamster ovary) cells engineered to express human NR1H4 protein (referred to as FXR). Reporter cells also incorporate the cDNA encoding beetle luciferase which catalyzes the substrates and yields photon emission. Luminescence intensity of the reaction is quantified using a plate-reading luminometer, Envision. Reporter Cells include the luciferase reporter gene functionally linked to an FXR responsive promoter. Thus, quantifying changes in luciferase expression in the treated reporter cells provides a sensitive surrogate measure of the changes in FXR activity. […] The assay is according to the manufacturer's instructions. In brief, the assay was performed in white, 96 well plates using final volume of 100 ul containing cells with different doses of compounds. Retrieve Reporter Cells from −80° C. storage. Perform a rapid thaw of the frozen cells by transferring a 10 ml volume of 37° C. cell recovery medium into the tube of frozen cells. Recap the tube of Reporter Cells and immediately place it in a 37° C. water bath for 5-10 minutes. Retrieve the tube of Reporter Cell Suspension from the water bath. Sanitize the outside surface of the tube with a 70% alcohol swab, and then transfer it into the cell culture hood. Dispense 90 μl of cell suspension into each well of the 96-well Assay Plate. Transfer the plate into 37° C. incubator, allowing the cells adherent to the bottom of the well. Dilute compounds in Dilution Plate (DP), and administrate to cells at Assay Plate (AP). DMSO content of the samples was kept at 0.2%. Cells were incubated for additional 22 hours before luciferase activities were measured. Thirty minutes before intending to quantify FXR activity, remove Detection Substrate and Detection Buffer from the refrigerator and place them in a low-light area so that they may equilibrate to room temperature. Remove the plate's lid and discard all media contents by ejecting it into an appropriate waste container. Gently tap the inverted plate onto a clean absorbent paper towel to remove residual droplets. Cells will remain tightly adhered to well bottoms. Add 100 ul of luciferase detection reagent to each well of the assay plate. Allow the assay plate to rest at room temperature for at least 5 minutes following the addition of LDR. Set the instrument (Envision) to perform a single 5 second “plate shake” prior to reading the first assay well. Read time may be 0.5 second (500 mSec) per well.

SMILES | Emax | EC50
Cc1c(C(=O)NS(=O)(=O)N2CCCCC2)ccc2nc(N3C4CCC3CC(NCc3c(-c5c(Cl)cccc5Cl)noc3C3CC3)C4)sc12 (stereo not drawn) [Example 400-14] | 119% | < 1 nM
O=C(O)c1ccc2nc(N3CCC(NCc4c(-c5ccccc5OC(F)(F)F)noc4C4CC4)CC3)sc2c1 [Example 638] | 107% | 100 to 1000 nM
CCOc1cc(C(=O)NS(=O)(=O)C2(C)CC2)cc2sc(N3C4CCC3CC(NCc3c(-c5c(Cl)cccc5Cl)noc3C3CC3)C4)nc12 (stereo not drawn) [Example 400-15] | 104% | < 1 nM
CC1(S(=O)(=O)NC(=O)c2cc(F)c3nc(N4CCC(NCc5c(-c6c(Cl)cccc6Cl)noc5C5CC5)CC4)sc3c2)CC1 [Example 400-10] | 68% | 100 to 1000 nM
COC(=O)c1ccc2nc(N3C4CCC3CC(NCc3c(-c5c(Cl)cccc5Cl)noc3C3CC3)C4)sc2c1Br (stereo not drawn) [Example 200-21] | 58% | 1 to 100 nM
O=C(NS(=O)(=O)C1CC1)c1cc(F)c2nc(N3CCC(NCc4c(-c5c(Cl)cccc5Cl)noc4C4CC4)CC3)sc2c1 [Example 400-9] | 37.5% | 100 to 1000 nM
O=C(NS(=O)(=O)C1CC1)c1cnc2nc(N3C4CCC3CC(NCc3c(-c5ccccc5OC(F)(F)F)noc3C3CC3)C4)sc2n1 (stereo not drawn) [Example 695] | 75% | 1 to 100 nM
CC(C)Oc1cc(C(=O)O)cc2sc(N3C4CCC3CC(NCc3c(-c5ccccc5OC(F)(F)F)noc3C3CC3)C4)nc12 (stereo not drawn) [Example 414] | 121% | < 1 nM
COC(=O)c1cc(F)c2nc(N3CCC(NCc4c(-c5ccccc5OC(F)(F)F)noc4C4CC4)CC3)sc2c1 [Example 641] | 40% | 100 to 1000 nM
COc1nc2cc(C(=O)NS(=O)(=O)C3(C)CC3)ccc2nc1N1C2CCC1CC(NCc1c(-c3c(Cl)cccc3Cl)noc1C1CC1)C2 (stereo not drawn) [Example 342] | 76% | 1 to 100 nM
CC(C)Oc1cc(C(=O)O)cc2sc(N3CCC(NCc4c(-c5ccccc5OC(F)(F)F)noc4C4CC4)CC3)nc12 [Example 640] | 92.3% | 1 to 100 nM
O=C(NS(=O)(=O)C(F)(F)F)c1ccc2nc(N3C4CCC3CC(NCc3c(-c5c(Cl)cccc5Cl)noc3C3CC3)C4)sc2c1 (stereo not drawn) [Example 236] | 75% | 1 to 100 nM
O=C(O)c1ccc2nc(N3C4CCC3CC(NCc3c(-c5ccccc5C(F)(F)F)noc3C3CC3)C4)oc2c1 (stereo not drawn) [Example 1418] | 102% | 1 to 100 nM
COC(=O)c1cc2sc(N3C4CCC3CC(NCc3c(-c5c(Cl)cccc5Cl)noc3C3CC3)C4)nc2cc1Br (stereo not drawn) [Example 200-19] | 50.5% | 1 to 100 nM
COC(=O)c1cc(C)c2nc(N3C4CCC3CC(NCc3c(-c5c(Cl)cccc5Cl)noc3C3CC3)C4)sc2c1 (stereo not drawn) [Example 7] | 37% | 1 to 100 nM
O=C(O)c1cc(F)c(N2C3CCC2CC(NCc2c(-c4ccccc4OC(F)(F)F)noc2C2CC2)C3)c(F)c1 (stereo not drawn) [Example 646] | 105% | 1 to 100 nM
O=C(NS(=O)(=O)N1CCCCC1)c1cc(OC(F)F)c2nc(N3C4CCC3CC(NCc3c(-c5c(Cl)cccc5Cl)noc3C3CC3)C4)sc2c1 (stereo not drawn) [Example 328] | 146% | < 1 nM
CC1(S(=O)(=O)NC(=O)c2ccc3nc(N4C5CCC4CC(NCc4c(-c6c(F)cccc6F)noc4C4CC4)C5)sc3c2)CC1 (stereo not drawn) [Example 1421] | 101% | 1 to 100 nM
COC(=O)c1cc(F)c2nc(N3CCC(NCc4c(-c5c(Cl)cccc5Cl)noc4C4CC4)CC3)sc2c1 [Example 200-5] | 72% | 100 to 1000 nM
CN(C)S(=O)(=O)NC(=O)c1cc(F)c2nc(N3C4CCC3CC(NCc3c(-c5c(Cl)cccc5Cl)noc3C3CC3)C4)sc2c1 (stereo not drawn) [Example 297] | 150% | < 1 nM

SMILES | Emax | EC50
CCOC(=O)c1ccc2nc(N(C)C3CCC(OCc4c(-c5c(Cl)cccc5Cl)noc4C4CC4)CC3)sc2c1 (stereo not drawn) [Example 169] | 38% | > 1000 nM
CC(C)(C)c1ccc(S(=O)(=O)NC(=O)c2ccc3nc(N4C5CCC4CC(NCc4c(-c6c(Cl)cccc6Cl)noc4C4CC4)C5)sc3c2)cc1 (single isomer, unassigned) [Example 262] | 289% | < 1 nM
CN(C)S(=O)(=O)NC(=O)c1ccc2nc(N3CCN(Cc4c(-c5c(Cl)cccc5Cl)noc4C4CC4)CC3)sc2c1 [Example 281] | 171% | 1 to 100 nM
Cc1c(C(=O)O)ccc2nc(N3C4CCC3CC(NCc3c(-c5c(Cl)cccc5Cl)noc3C3CC3)C4)sc12 (stereo not drawn) [Example 196] | 83.5% | 1 to 100 nM
O=C(NCCS(=O)(=O)O)c1cc(F)c2nc(N3C4CCC3CC(NCc3c(-c5c(Cl)cccc5Cl)noc3C3CC3)C4)sc2c1 (stereo not drawn) [Example 200-1] | 10% | 1 to 100 nM
O=C(NS(=O)(=O)C1CC1)c1ccc2nc(N3C4CCC3CC(NCc3c(-c5c(Cl)cccc5Cl)noc3C3CC3)C4)sc2c1 (stereo not drawn) [Example 201] | 282% | < 1 nM
COC(=O)c1ccc2nc(N3C4CCC3CC(NCc3c(-c5c(Cl)cccc5Cl)noc3C3CC3)C4)cnc2c1 (stereo not drawn) [Example 64] | 40% | 1 to 100 nM
CC(C)Oc1cc(C(=O)NS(=O)(=O)C2(C)CC2)cc2sc(N3C4CCC3CC(NCc3c(-c5ccccc5C(F)(F)F)noc3C3CC3)C4)nc12 (stereo not drawn) [Example 1402] | 136% | 1 to 100 nM
CCOC(=O)c1ccc2nc(NC3CCN(Cc4c(-c5c(Cl)cccc5Cl)noc4C4CC4)CC3)sc2c1 [Example 183] | 119% | > 1000 nM
COC(=O)c1cc(OC)c2nc(N3C4CCC3CC(NCc3c(-c5c(Cl)cccc5Cl)noc3C3CC3)C4)sc2c1 (stereo not drawn) [Example 5] | 145% | 1 to 100 nM
O=C(NS(=O)(=O)N1CCCC1)c1ccc2nc(N3C4CCC3CC(NCc3c(-c5c(Cl)cccc5Cl)noc3C3CC3)C4)sc2c1 (stereo not drawn) [Example 227] | 256% | < 1 nM
O=C(NS(=O)(=O)N1CCCCC1)c1cc(F)c2nc(N3C4CCC3CC(NCc3c(-c5c(Cl)cccc5Cl)noc3C3CC3)C4)sc2c1 (stereo not drawn) [Example 300] | 143% | < 1 nM
Cc1cc2nc(N3C4CCC3CC(NCc3c(-c5c(Cl)cccc5Cl)noc3C3CC3)C4)sc2cc1C(=O)NS(=O)(=O)C1(C)CC1 (stereo not drawn) [Example 400-11] | 79.3% | < 1 nM
COC(=O)c1cc(C2CC2)c2nc(N3C4CCC3CC(NCc3c(-c5ccccc5OC(F)(F)F)noc3C3CC3)C4)sc2c1 (stereo not drawn) [Example 643] | 52% | 1 to 100 nM
O=C(NS(=O)(=O)C1CCCC1)c1ccc2nc(N3C4CCC3CC(NCc3c(-c5c(Cl)cccc5Cl)noc3C3CC3)C4)sc2c1 (stereo not drawn) [Example 231] | 277% | < 1 nM
COC(=O)c1cc(OC(C)C)c2nc(N3C4CCC3CC(NCc3c(-c5c(F)cccc5F)noc3C3CC3)C4)sc2c1 (stereo not drawn) [Example 1423] | 78% | > 1000 nM
CC1(S(=O)(=O)NC(=O)c2cc(C3CC3)c3nc(N4C5CCC4CC(NCc4c(-c6c(Cl)cccc6Cl)noc4C4CC4)C5)sc3c2)CC1 (stereo not drawn) [Example 400-35] | 117% | 1 to 100 nM
COc1cc(C(=O)NCC(=O)O)cc2sc(N3C4CCC3CC(NCc3c(-c5c(Cl)cccc5Cl)noc3C3CC3)C4)nc12 (stereo not drawn) [Example 200-11] | 75% | 1 to 100 nM
COC(=O)c1ccc2nc(N3C4CCC3CC(N(C)Cc3c(-c5c(Cl)cccc5Cl)noc3C3CC3)C4)sc2c1 (stereo not drawn) [Example 179] | 148% | 100 to 1000 nM
